Key:
AMPA receptor [1] = assay: Rat hippocampal slice assay: field EPSP amplitude in CA1; assay type: cell-based
Protocol: (§1) In another test, excitatory responses (field EPSPs) were measured in hippocampal slices, which were maintained in a recording chamber continuously perfused with artificial cerebrospinal fluid (ACSF). During a 15-30 minute interval, the perfusion medium was switched to one containing various concentrations of the test compounds. Responses collected immediately before and at the end of drug perfusion were superimposed in order to calculate the percent increase in EPSP amplitude.
To obtain data for the activity of invention compounds on synaptic responses, a bipolar nichrome stimulating electrode was positioned in the dendritic layer (stratum radiatum) of the hippocampal subfield CA1 close to the border of subfield CA3. Current pulses (0.1 msec) through the stimulating electrode activate a population of the Schaffer-commissural (SC) fibers, which arise from neurons in the subdivision CA3 and terminate in synapses on the dendrites of CA1 neurons. Activation of these synapses causes them to release the transmitter glutamate. Glutamate binds to post-synaptic AMPA receptors, which then transiently open an associated ion channel and permit a sodium current to enter the postsynaptic cell. This current results in a voltage in the extracellular space (the field EPSP), which is recorded by a high impedance recording electrode positioned in the middle of the stratum radiatum of CA1.
The intensity of the stimulation current was adjusted to produce half-maximal EPSPs (typically about 1.5-2.0 mV). Paired stimulation pulses were given every 40 sec with an interpulse interval of 200 msec, as described further in Example 30.
as §1, with “Hippocampal slices” for “In another test, excitatory responses (field EPSPs) were measured in hippocampal slices, which”, “During” for “During a”, “intervals,” for “interval,”
To conduct these tests, the hippocampus was removed from anesthetized, 2 month old Sprague-Dawley rats and in vitro slices (400 μm thick) were prepared and maintained in an interface chamber at 35° C. using conventional techniques [see, for example, Dunwiddie and Lynch, J. Physiol. 276: 353-367 (1978)]. The chamber was constantly perfused at 0.5 mL/min with ACSF containing (in mM): NaCl 124, KCl 3, KH2PO4 1.25, MgSO4 2.5, CaCl2 3.4, NaHCO3 26, glucose 10 and L-ascorbate 2. A bipolar nichrome stimulating electrode was positioned in the dendritic layer (stratum radiatum) of the hippocampal subfield CA1 close to the border of subfield CA3.
Current pulses (0.1 msec) through the stimulating electrode activate a population of the Schaffer-commissural (SC) fibers, which arise from neurons in the subdivision CA3 and terminate in synapses on the dendrites of CA1 neurons. Activation of these synapses causes them to release the transmitter glutamate. Glutamate binds to the post-synaptic AMPA receptors, which then transiently open an associated ion channel and permit a sodium current to enter the postsynaptic cell. This current results in a voltage in the extracellular space (the field EPSP) which is recorded by a high impedance recording electrode positioned in the middle of the stratum radiatum of CA1. The intensity of the stimulation current was adjusted to produce half-maximal EPSPs (typically about 1.5-2.0 mV). Paired stimulation pulses were given every 40 s with an interpulse interval of 200 msec (see below). The field EPSPs of the second response were digitized and analyzed to determine amplitude. If the responses were stable for 15-30 min (baseline), test compounds were added to the perfusion lines for a period of about 15 min. The perfusion was then changed back to regular ACSF. […]

AMPA receptor [2] = assay: In vivo electrophysiology: field EPSP in dentate gyrus of anesthetized animals; design: species or system rat
Protocol: Animals are maintained under anesthesia by phenobarbital administered using a Hamilton syringe pump. Stimulating and recording electrodes are inserted into the perforant path and dentate gyrus of the hippocampus, respectively. Once electrodes are implanted, a stable baseline of evoked responses are elicited using single monophasic pulses (100 μs pulse duration) delivered at 3/min to the stimulating electrode. Field EPSPs are monitored until a stable baseline is achieved (about 20-30 min), after which a solution of test compound in HPCD is injected intraperitoneally and evoked field potentials are recorded. Evoked potentials are recorded for approximately 2 h following drug administration or until the amplitude of the field EPSP returns to baseline. In the latter instance, it is common that an iv administration is also carried out with an appropriate dose of the same test compound.

AMPA receptor [3] = assay: In vitro patch clamp electrophysiology assay: glutamate-induced whole-cell current in cultured cortical neurons; assay type: cell-based; conditions: rat cortical neurons, 500 μM glutamate
Protocol: Cortical cells were prepared from day 18-19 embryonic Sprague-Dawley rats and recorded after 3 days in culture. The extracellular solution (ECS) contained (in mM): NaCl (145), KCl (5.4), HEPES (10), MgCl2 (0.8), CaCl2 (1.8), glucose (10), sucrose (30); pH. 7.4. In order to block the voltage-gated sodium currents, 40 nM TTX was added to the recording solution. The intracellular solution contained (in mM): K-gluconate (140), HEPES (20), EGTA (1.1), phosphocreatine (5), MgATP (3), GTP (0.3), MgCl2 (5), and CaCl2 (0.1); pH: 7.2. All test compound and glutamate solutions were made-up in the extracellular solution.
The whole-cell current was measured with patch-clamp amplifier (Axopatch 200B), filtered at 2 kHz, digitized at 5 kHz and recorded on a PC with pClamp 8. The cells were voltage-clamped at −80 mV. Solutions were applied by DAD-12 system. A baseline response for each cell was recorded using a 1 s pulse of 500 μM glutamate dissolved in ECS. Responses to test compound were then determined by application of a 10 s pulse of test compound followed by a 1 s pulse of the same concentration of test compound plus 500 μM glutamate and then 10 s of saline. This pulse sequence was repeated until a stable reading was obtained, or until sufficient data points were measured to allow extrapolation to a calculated maximum change.
The mean value of plateau current between 600 ms to 900 ms after application of glutamate or test compound plus glutamate was calculated and used as the parameter to measure the drug effect. The plateau responses in the presence of varying concentrations of test compound were divided by the baseline response in order to calculate the percentage increase. Compounds are deemed active in this test if, at a test concentration of 3 μM or less, they produce a greater than 100% increase in the value of the steady-state current measured due to application of glutamate alone. The concentration at which the glutamate induced current is increased by 100% is commonly referred to as the EC2x value.

Row | melting point [°C] | Structure (SMILES) | other results
1 | 215 to 217 | CCC(Cn1ccnn1)n1cnc2cc3c(=O)n(C4CC4)nnc3cc2c1=O (stereo not shown) | 
2 | 245 to 246 | CC(Cn1cnnn1)n1cnc2cc3c(=O)n(C4CC4)nnc3cc2c1=O (stereo not shown) | 
3 | 129 to 130 | CCC(Cn1nccn1)n1cnc2cc3c(=O)n(C4CC4)nnc3cc2c1=O (stereo not shown) | 
4 | 213 to 214 | CCC(Cn1cnnn1)n1cnc2cc3c(=O)n(C4CC4)nnc3cc2c1=O (stereo not shown) | 
5 | 160 to 161 | CCC(Cn1ncnn1)n1cnc2cc3c(=O)n(C4CC4)nnc3cc2c1=O (stereo not shown) | 
6 | 204 to 206 | CC(Cn1cnnn1)n1nnc2cc3c(=O)n(C(C)Cn4ncnn4)nnc3cc2c1=O (stereo not shown) | 
7 | 178 to 180 | CC(Cn1cccn1)n1nnc2cc3c(=O)n(C4CC4)nnc3cc2c1=O (stereo not shown) | 
8 | 160 to 161 | C[C@H](Cn1cnnn1)n1nnc2cc3c(=O)n([C@H](C)Cn4ncnn4)nnc3cc2c1=O | 
9 | 195 to 199 | C[C@H](Cn1cncn1)n1nnc2cc3c(=O)n(C4CC4)nnc3cc2c1=O | 

Second part, the molecule before the results:

Row | Structure (SMILES) | melting point [°C] | other results
10 | C[C@H](Cn1cccn1)n1cnc2cc3c(=O)n([C@H](C)Cn4cc(Cl)cn4)cnc3cc2c1=O | 231 to 232 | 
11 | C#CCn1nnc2cc3c(=O)n(C(C)Cn4cnnn4)cnc3cc2c1=O (stereo not shown) | 218 to 219 | 
12 | CC[C@H](Cn1nnnc1C)n1cnc2cc3c(=O)n([C@H](C)Cn4ncnn4)nnc3cc2c1=O | 238 to 240 | 
13 | COCCn1nnc2cc3c(=O)n([C@H](C)Cn4ncnn4)nnc3cc2c1=O [Example 18, 3-(2-Methoxyethyl)-8-[(2R)-1-(2H-tetrazol-2-yl)propan-2-yl]-3,8-dihydrobenzo[1,2-d: 4,5-d′]bis[1,2,3]triazine-4,9-dione] |  | % increase in the amplitude of the field EPSP in the CA1 region of rat hippocampal slice (AMPA receptor [1]; @ 10 μM): 35% @ 10 μM; % increase in the amplitude of the field EPSP in rat dentate gyrus (AMPA receptor [2]; @ 5 mpk i.p.): 34%^3
14 | C[C@H](Cn1ncnn1)n1nnc2cc3c(=O)n([C@H](C)Cn4ncnn4)nnc3cc2c1=O [Example 80, 3,8-Bis[(2R)-1-(2H-tetrazol-2-yl)propan-2-yl]-3,8-dihydrobenzo[1,2-d:4,5-d′]bis[1,2,3]triazine-4,9-dione] |  | % increase in the amplitude of the field EPSP in the CA1 region of rat hippocampal slice (AMPA receptor [1]; @ 3 μM): 65% @ 3 μM; In vitro Patch Clamp Electrophysiology EC2x (concentration at which the glutamate induced current is increased by 100%) (AMPA receptor [3]): 0.016 μM; % increase in the amplitude of the field EPSP in rat dentate gyrus (AMPA receptor [2]; @ 1 mpk i.p.): 59%^4
15 | C[C@H](Cn1ncnn1)n1nnc2cc3c(=O)n(C)nnc3cc2c1=O [Example 4, 3-Methyl-8-[(2R)-1-(2H-tetrazol-2-yl)propan-2-yl]-3,8-dihydrobenzo[1,2-d:4,5-d′]bis[1,2,3]triazine-4,9-dione] |  | % increase in the amplitude of the field EPSP in the CA1 region of rat hippocampal slice (AMPA receptor [1]; @ 3 μM): 18% @ 3 μM; In vitro Patch Clamp Electrophysiology EC2x (concentration at which the glutamate induced current is increased by 100%) (AMPA receptor [3]): 0.28 μM; % increase in the amplitude of the field EPSP in rat dentate gyrus (AMPA receptor [2]; @ 5 mpk i.p.): 46%^3
16 | CC[C@H](Cn1nnc(C)n1)n1cnc2cc3c(=O)n([C@H](C)Cn4ncnn4)nnc3cc2c1=O | 140 to 141 | 
17 | C[C@H](Cn1ncnn1)n1cnc2cc3c(=O)n(C4CC4)nnc3cc2c1=O [Example 53, 3-Cyclopropyl-8-[(2R)-1-(2H-tetrazol-2-yl)propan-2-yl]-3,8-dihydro[1,2,3]triazino[4,5-g]quinazoline-4,9-dione] |  | % increase in the amplitude of the field EPSP in the CA1 region of rat hippocampal slice (AMPA receptor [1]; @ 10 μM): 55% @ 10 μM; In vitro Patch Clamp Electrophysiology EC2x (concentration at which the glutamate induced current is increased by 100%) (AMPA receptor [3]): 0.60 μM; % increase in the amplitude of the field EPSP in rat dentate gyrus (AMPA receptor [2]; @ 5 mpk i.p.): 33%^3
18 | C#CCn1nnc2cc3c(=O)n(C(C)Cn4ncnn4)cnc3cc2c1=O (stereo not shown) | 222 to 223 | 
19 | CC[C@H](Cn1cnnn1)n1cnc2cc3c(=O)n([C@H](CC)Cn4cnnn4)nnc3cc2c1=O | 80 to 81 | 
20 | CC(Cn1ncnn1)n1nnc2cc3c(=O)n(C(C)Cn4ncnn4)nnc3cc2c1=O (stereo not shown) | 223 to 226 | 
21 | CC[C@H](Cn1cnnn1)n1cnc2cc3c(=O)n([C@H](C)Cn4ncnn4)nnc3cc2c1=O | 198 to 200 | 
22 | C[C@H](Cn1ncnn1)n1nnc2cc3c(=O)n(C4CC4)nnc3cc2c1=O [Example 1, 3-Cyclopropyl-8-[(1R)-1-methyl-2-(2H-tetrazol-2-yl)ethyl]-3,8-dihydro[1,2,3]triazino[4,5-g][1,2,3]-benzotriazine-4,9-dione] |  | % increase in the amplitude of the field EPSP in the CA1 region of rat hippocampal slice (AMPA receptor [1]; @ 3 μM): 69% @ 3 μM; In vitro Patch Clamp Electrophysiology EC2x (concentration at which the glutamate induced current is increased by 100%) (AMPA receptor [3]): 0.28 μM; % increase in the amplitude of the field EPSP in rat dentate gyrus (AMPA receptor [2]; @ 5 mpk i.p.): 37%^3
23 | C[C@H](Cn1ncnn1)n1nnc2cc3c(=O)n(CC#N)nnc3cc2c1=O [Example 22, {4,9-Dioxo-8-[(2R)-1-(2H-tetrazol-2-yl)propan-2-yl]-8,9-dihydrobenzo[1,2-d:4,5-d′]bis[1,2,3]triazin-3(4H)-yl}acetonitrile] |  | % increase in the amplitude of the field EPSP in the CA1 region of rat hippocampal slice (AMPA receptor [1]; @ 3 μM): 24% @ 3 μM; In vitro Patch Clamp Electrophysiology EC2x (concentration at which the glutamate induced current is increased by 100%) (AMPA receptor [3]): 0.24 μM; % increase in the amplitude of the field EPSP in rat dentate gyrus (AMPA receptor [2]; @ 5 mpk i.p.): 42%^3
